# In article PMC3608651, “A Broad Profile of Co-Dominant Epitopes Shapes the Peripheral Mycobacterium tuberculosis Specific CD8+ T-Cell Immune Response in South African Patients with Active Tuberculosis” (PLoS ONE, 2013):
# Like-named read-outs stand apart in the source and are kept apart here.
# Columns and labels:
# Assay type in all cases: binding
# HLA-B*07:02 = HLA-B*07:02 (Homo sapiens, UniProt P01889); details: percent relative the binding of positive control peptide […]; duplicated experiments; positive binder >40%
# HLA-A*30:02 [1] = target: T1, HLA-A*30:02 (Homo sapiens, UniProt P04439, D101N/D140H/D185E/E176R/F33S/G80R/H175R/K168Q/Q94H/R138E/R41S/V100E)
# HLA-C*07:01 [2] = target: T2, HLA-C*07:01 (Homo sapiens, UniProt P10321, K90N/S123Y); test: affinity assay (ED50)
# HLA-A*30:02 [3] = target: T1, HLA-A*30:02; details: duplicated experiments, positive binder >40%
# HLA-A*24:02 = HLA-A*24:02 (Homo sapiens, UniProt P04439, D101N/D140Y/D185E/E176V/E190D/F33S/G103R/G107R/I119L/I121M/I306V/K335N/L105A/L180Q/L300P/N151K/N90K/Q86E/Q94H/R106L/R138H/R89G/T104I/T345S/V100E/W191G/Y123F); details: duplicated experiments, positive binder >40%
# HLA-C*07:01 [4] = target: T2, HLA-C*07:01; details: duplicated experiments, positive binder >40%
# HLA-B*58:01 [5] = target: T3, HLA-B*58:01 (Homo sapiens, UniProt P01889, A329T/C349S/D201E/D98Y/E176V/E187L/E204Q/E69T/G107R/I218V/I90N/K202T/L105A/L119I/N104I/N87E/Q89R/Q94S/R106L/R155S/R180L/R86G/S101N/S121R/S35A/S48A/T118I/V127L/V306I/V36M/Y140S/Y91M); details: duplicated experiments, positive binder >40%
# HLA-C*07:01 [6] = target: T2, HLA-C*07:01; test: off-rate assay (t1/2); details: time points 0-8 h
# HLA-A*68:01 [7] = target: T4, HLA-A*68:01 (Homo sapiens, UniProt P04439, A269V/D185E/E176V/E277Q/E87N/F33Y/G231S/I121M/I166T/I218V/L180W/L300P/L318F/N151K/P208A/P217A/Q86R/R169H/T345S); details: duplicated experiments, positive binder >40%
# HLA-A*30:02 [8] = target: T1, HLA-A*30:02; details: time points 0-8 h
# HLA-A*30:01 = HLA-A*30:01 (Homo sapiens, UniProt P04439, D140H/D185E/E176W/F33S/G80R/H175R/K168Q/R138E/R41S); details: duplicated experiments, positive binder >40%
# HLA-A*02:01 = HLA-A*02:01 (Homo sapiens, UniProt P04439, D140Y/D185E/D98H/E176V/E277Q/G131W/G231S/I119V/I121R/I166T/I218V/L300P/L318F/N151K/N90K/P208A/P217A/Q86G/Q94H/R138H/R169H/T345S); details: plate-bound monomer 0.5 µg/ml, duplicated experiments, positive binder >40%
# HLA-B*58:01 [9] = target: T3, HLA-B*58:01
# HLA-B*58:01 [10] = target: T3, HLA-B*58:01; details: time points 0-8 h
# HLA-A*68:01 [11] = target: T4, HLA-A*68:01
# HLA-A*68:01 [12] = target: T4, HLA-A*68:01; details: time points 0-8 h
# [13] = percent relative the binding of positive control peptide […]
# [14] = peptide titrated 10−4 to 10−9 M
Substance,Bind B*07:02 (HLA-B*07:02) [%],Aff A*30:02 (ED50) (HLA-A*30:02 [1]),Aff C*07:01 (ED50) (HLA-C*07:01 [2]),Bind A*30:02 (HLA-A*30:02 [3]; [13]) [%],Bind A*24:02 (HLA-A*24:02; [13]) [%],Bind C*07:01 (HLA-C*07:01 [4]; [13]) [%],Bind B*58:01 (HLA-B*58:01 [5]; [13]) [%],O-rate C*07:01 (t1/2) (HLA-C*07:01 [6]) [min],Bind A*68:01 (HLA-A*68:01 [7]; [13]) [%],O-rate A*30:02 (t1/2) (HLA-A*30:02 [8]) [min],Bind A*30:01 (HLA-A*30:01; [13]) [%],Bind A*02:01 (HLA-A*02:01; [13]) [%],also measured
ANNTRLWVY,9,2e-08 M,5e-09 M,195,32,113,19,42,0,114,19,5,
RAVKPT GSA,84,,2E -07 M,18,0,82,72,84,10,,4,19,Aff B*58:01 (ED50) (HLA-B*58:01 [9]): 5E -07 M; O-rate B*58:01 (t1/2) (HLA-B*58:01 [10]): 18 min
NNSPAVYLL,0,,2e-07 M,0,49,70,0,36,28,,0,16,
AMEDLVRAY [Rv0288_61–69],,,5e-06 M,,,46,14,6,0,,,,
LAAYHPQQF,74,3e-07 M,1E -07 M,66,52,84,13,24,37,66,0,39,
VRAYHAMSS [Rv0288_66–74],,,1e-06 M,,,79,10,12,29,,,,
NTPAFEWYY,0,2e-08 M,8e-09 M,99,0,48,36,54,69,90,6,0,Aff A*68:01 (ED50) (HLA-A*68:01 [11]): 1E -07 M; O-rate A*68:01 (t1/2) (HLA-A*68:01 [12]): 12 min
YNYPAMLGH [Rv0288_6–14],,,7e-06 M,,,48,0,18,30,,,,
FVRSSNLKF,114,8E -06 M,2E -08 M,94,81,76,12,84,45,114,0,15,Aff A*68:01 (ED50) (HLA-A*68:01 [11]): 8e-08 M; O-rate A*68:01 (t1/2) (HLA-A*68:01 [12]): 6 min
LAAAWGGSG [Rv3875_39-47],4,,,,,,,60,,126,,,Aff A*30:02 (ED50) (HLA-A*30:02 [1]; [14]): 7e-09 M; Aff C*07:01 (ED50) (HLA-C*07:01 [2]; [14]): 4e-08 M; Bind A*30:02 (HLA-A*30:02 [3]; percent relative the binding of positive control peptide KIQNFRVYY): 114%; Bind A*24:02 (HLA-A*24:02; percent relative the binding of positive control peptide RYLKDQQLL): 4%; Bind C*07:01 (HLA-C*07:01 [4]; percent relative the binding of positive control peptide KYFDEHYEY): 120%; Bind B*58:01 (HLA-B*58:01 [5]; percent relative the binding of positive control peptide IAMESIVIW): 7%; Bind A*68:01 (HLA-A*68:01 [7]; percent relative the binding of positive control peptide KTGGPIYKR): 10%; Bind A*30:01 (HLA-A*30:01; percent relative the binding of positive control peptide KTKDIVNGL): 14%; Bind A*02:01 (HLA-A*02:01; percent relative the binding of positive control peptide FLPSDFFPSV): 8%
I NT P AF E WY,2,7E -07 M,6E -07 M,132,20,41,54,60,9,114,10,0,Aff B*58:01 (ED50) (HLA-B*58:01 [9]): 5e-07 M; O-rate B*58:01 (t1/2) (HLA-B*58:01 [10]): 30 min
